Reference: patent US20210323976A1, “HETEROARYL COMPOUNDS FOR KINASE INHIBITION” (ARIAD Pharmaceuticals, Inc., priority 2015, published 2021)

Legend:
Format in all cases: cell-based
[1] = target: T1, EGFR exon 19 deletion (E746-A750) and T790M mutation (Homo sapiens, UniProt P00533, DEL746-750/T790M); assay: Ba/F3-EGFR-Del/T790M cell anti-proliferation assay (MTS); settings: Ba/F3-EGFR-Del/T790M cells, 72 h, MTS signal
T1 construct: expressed in transfected cells; host or cells: Ba/F3 (murine pro-B) cells, lentiviral transduction with pLVX-IRES puro
Description: A compound's ability in selectively inhibiting EGFR exon 19 deletion and T790M concurrent mutations can be assessed using Ba/F3 cells, a murine pro-B cell line, which have been transduced with EGFR exon 19 deletion and T790M mutation. An expression vector, pLVX-IRES puro (Clontech) coding for human EGFR E746-A750 deletion and T790M Mutation, was transfected into HEK293 cells by the Trans-Lentiviral ORF Packaging System (Thermo Scientific), to produce virus encoding EGFR exon 19 deletion and T790M mutations. Ba/F3 (DSMZ) cells maintained in RPM11640 medium supplemented with 10% fetal bovine serum, 200 pM L-glutamine/200 μg/mL penicillin/200 μg/mL streptomycin (Life Technology) and 10 ng/mL IL-3 (R&D system), were infected by EGFR E746-A750 deletion and T790M Mutation virus and subsequently selected by puromycin (Life Technology) selection and IL-3 depletion. Ba/F3 cells expressing EGFR E746-A750 deletion and T790M Mutation (named Ba/F3-EGFR-Del/T790M) can proliferate in the absence of IL-3. The anti-proliferative activity of compounds was determined as follows: BaF3-EGFR-Del/T790M cells seeded in 96 well plates (2500 cells/well) were treated with test compound (dissolved in DMSO) at a series of concentrations (4-fold dilution, top concentration: 10,000 nM). The plates were incubated for 72 h in a 37° C. incubator with 5% CO2, and the number of viable cells in each well were measured indirectly by CellTiter 96® Aqueous One Solution Cell Proliferation Assay (Promega; this assay is a colorimetric method for determining the number of viable cells through measurement of their metabolic activity by detection of enzymatic conversion of tetrazolium salts into blue formazan derivatives). Reagent (20 pL) was added into each well, and the plates were returned to the incubator for 2 h. The absorbance in each well was then measured at 490 nm using an Envision plate reader (Perkin Elmer). IC50 values were calculated by determining the concentration of compound required to decrease the MTS signal by 50% comparing to the DMSO control in best-fit curves using Microsoft XLfit software or Accelrys Pipeline Pilot.

[2] = target: T2, EGFR exon 20 ASV insertion (V769_D770insASV) (Homo sapiens, UniProt P00533, INS769ASV); assay: Ba/F3-EGFR-Exon20-ASV cell anti-proliferation assay (MTS, CellTiter 96 AQueous One); settings: Ba/F3-EGFR-Exon20-ASV cells, 72 h, MTS signal
T2 construct: expressed in transfected cells; host or cells: Ba/F3 (murine pro-B) cells, lentiviral transduction with pLVX-IRES puro
Description: (§1) A compound's ability in selectively inhibiting EGFR exon 20 insertion mutations can be assessed using Ba/F3 cells, a murine pro-B cell line, which have been transduced with EGFR exon 20 insertions. An expression vector, pLVX-IRES puro (Clontech) coding for human EGFR exon 20 insertions NPG (H773_V774insNPG) or ASV (V769_D770insASV), was transfected into HEK293 cells by the Trans-Lentiviral ORF Packaging System (Thermo Scientific), to produce virus encoding EGFR exon 20 insertions. Ba/F3 (DSMZ) cells maintained in RPM11640 medium supplemented with 10% fetal bovine serum, 200 pM L-glutamine/200 µg/mL penicillin/200 µg/mL streptomycin (Life Technology) and 10 ng/mL IL-3 (R&D system), were infected by EGFR Exon20 virus and subsequently selected by puromycin (Life Technology) selection and IL-3 depletion. Ba/F3 cells expressing EGFR exon 20 insertions (named Ba/F3-EGFR-Exon20-NPG or Ba/F3-EGFR-Exon20-ASV) can proliferate in the absence of IL-3. The anti-proliferative activity of compounds were determined as follows: BaF3-EGFR-Exon20 cells (NPG or ASV) seeded in 96 well plates (2500 cells/well) were treated with test compound (dissolved in DMSO) at a series of concentrations (4-fold dilution, top concentration: 10,000 nM). The plates were incubated for 72 h in a 37° C. incubator with 5% CO2, and the number of viable cells in each well were measured indirectly by CellTiter 96® Aqueous One Solution Cell Proliferation Assay (Promega) This assay is a colorimetric method for determining the number of viable cells through measurement of their metabolic activity by detection of enzymatic conversion of tetrazolium salts into blue formazan derivatives. Reagent (20 pL) was added into each well, and the plates were returned to the incubator for 2 h. The absorbance in each well was then measured at 490 nm using an Envision plate reader (Perkin Elmer). IC50 values were calculated by determining the concentration of compound required to decrease the MTS signal by 50% comparing to the DMSO control in best-fit curves using Microsoft XLfit software or Accelrys Pipeline Pilot.

[3] = target: EGFR exon 20 NPG insertion (H773_V774insNPG) (Homo sapiens, UniProt P00533, cells depend on it, form not given); assay: Ba/F3-EGFR-Exon20-NPG cell anti-proliferation assay (MTS, CellTiter 96 AQueous One); settings: 72 h, MTS signal
Description: as §1

[4] = target: T3, Her2 exon 20 YVMA insertion (A775_G776ins YVMA) (Homo sapiens, UniProt P04626, INS775YVMA); assay: Ba/F3-Her2 Exon20 YVMA cell anti-proliferation assay (MTS); settings: Ba/F3-Her2 Exon20 YVMA cells, 72 h, MTS signal
T3 construct: expressed in transfected cells; host or cells: Ba/F3 (murine pro-B) cells, lentiviral transduction with pLVX-IRES puro
Description: A compound's ability in selectively inhibiting Her2 exon 20 YVMA insertion mutations can be assessed using Ba/F3 cells, a murine pro-B cell line, which have been transduced with Her2 Exon20 YVMA insertions. An expression vector, pLVX-IRES puro (Clontech) coding for human EGFR exon 20 insertions YVMA (A775_G776ins YVMA), was transfected into HEK293 cells by the Trans-Lentiviral ORF Packaging System (Thermo Scientific), to produce virus encoding EGFR exon 20 insertions. Ba/F3 (DSMZ) cells maintained in RPM11640 medium supplemented with 10% fetal bovine serum, 200 pM L-glutamine/200 μg/mL penicillin/200 μg/mL streptomycin (Life Technology) and 10 ng/mL IL-3 (R&D system), were infected by EGFR Exon20 virus and subsequently selected by puromycin (Life Technology) selection and IL-3 depletion. Ba/F3 cells expressing Her2 Exon20 YVMA insertions (named Ba/F3-Her2 Exon20 YVMA) can proliferate in the absence of IL-3. The anti-proliferative activity of compounds was determined as follows: BaF3-Her2 Exon20 YVMA cells seeded in 96 well plates (2500 cells/well) were treated with test compound (dissolved in DMSO) at a series of concentrations (4-fold dilution, top concentration: 10,000 nM). The plates were incubated for 72 h in a 37° C. incubator with 5% CO2, and the number of viable cells in each well were measured indirectly by CellTiter 96® Aqueous One Solution Cell Proliferation Assay (Promega; this assay is a colorimetric method for determining the number of viable cells through measurement of their metabolic activity by detection of enzymatic conversion of tetrazolium salts into blue formazan derivatives). Reagent (20 pL) was added into each well, and the plates were returned to the incubator for 2 h. The absorbance in each well was then measured at 490 nm using an Envision plate reader (Perkin Elmer). IC50 values were calculated by determining the concentration of compound required to decrease the MTS signal by 50% comparing to the DMSO control in best-fit curves using Microsoft XLfit software or Accelrys Pipeline Pilot.

T1 sequence (P00533 with tags, fused parts or gaps DEL746-750/T790M): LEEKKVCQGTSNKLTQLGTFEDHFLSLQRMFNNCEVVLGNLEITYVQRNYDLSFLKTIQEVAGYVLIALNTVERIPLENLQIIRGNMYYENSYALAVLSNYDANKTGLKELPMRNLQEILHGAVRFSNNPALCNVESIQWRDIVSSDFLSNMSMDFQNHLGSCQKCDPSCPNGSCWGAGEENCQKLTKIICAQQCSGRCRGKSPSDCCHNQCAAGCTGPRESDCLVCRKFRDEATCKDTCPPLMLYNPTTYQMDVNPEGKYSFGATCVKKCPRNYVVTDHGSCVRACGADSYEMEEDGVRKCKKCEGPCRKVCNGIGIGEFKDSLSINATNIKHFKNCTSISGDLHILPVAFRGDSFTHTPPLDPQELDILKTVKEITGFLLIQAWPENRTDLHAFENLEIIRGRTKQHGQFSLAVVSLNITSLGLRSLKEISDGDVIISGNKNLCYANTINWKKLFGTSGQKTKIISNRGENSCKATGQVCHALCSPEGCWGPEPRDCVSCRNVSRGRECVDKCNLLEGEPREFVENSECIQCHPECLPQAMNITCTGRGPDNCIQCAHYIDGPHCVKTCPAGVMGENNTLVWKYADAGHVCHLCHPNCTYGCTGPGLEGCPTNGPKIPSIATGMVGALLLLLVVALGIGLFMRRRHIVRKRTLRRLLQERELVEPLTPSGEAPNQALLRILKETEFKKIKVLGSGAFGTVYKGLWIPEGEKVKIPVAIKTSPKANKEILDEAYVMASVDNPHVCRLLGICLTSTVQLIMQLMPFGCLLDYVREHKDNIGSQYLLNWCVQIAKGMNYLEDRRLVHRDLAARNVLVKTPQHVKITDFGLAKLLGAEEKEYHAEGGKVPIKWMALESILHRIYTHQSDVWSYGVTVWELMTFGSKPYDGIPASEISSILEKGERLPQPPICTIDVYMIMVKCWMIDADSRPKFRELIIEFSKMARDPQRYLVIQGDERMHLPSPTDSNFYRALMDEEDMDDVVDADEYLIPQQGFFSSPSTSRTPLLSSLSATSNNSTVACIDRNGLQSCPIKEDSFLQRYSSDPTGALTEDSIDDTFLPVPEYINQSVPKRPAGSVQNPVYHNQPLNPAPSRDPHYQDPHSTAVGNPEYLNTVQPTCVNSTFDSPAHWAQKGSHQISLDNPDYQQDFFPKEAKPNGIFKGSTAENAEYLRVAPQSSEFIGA
T2 sequence (P00533 with tags, fused parts or gaps INS769ASV): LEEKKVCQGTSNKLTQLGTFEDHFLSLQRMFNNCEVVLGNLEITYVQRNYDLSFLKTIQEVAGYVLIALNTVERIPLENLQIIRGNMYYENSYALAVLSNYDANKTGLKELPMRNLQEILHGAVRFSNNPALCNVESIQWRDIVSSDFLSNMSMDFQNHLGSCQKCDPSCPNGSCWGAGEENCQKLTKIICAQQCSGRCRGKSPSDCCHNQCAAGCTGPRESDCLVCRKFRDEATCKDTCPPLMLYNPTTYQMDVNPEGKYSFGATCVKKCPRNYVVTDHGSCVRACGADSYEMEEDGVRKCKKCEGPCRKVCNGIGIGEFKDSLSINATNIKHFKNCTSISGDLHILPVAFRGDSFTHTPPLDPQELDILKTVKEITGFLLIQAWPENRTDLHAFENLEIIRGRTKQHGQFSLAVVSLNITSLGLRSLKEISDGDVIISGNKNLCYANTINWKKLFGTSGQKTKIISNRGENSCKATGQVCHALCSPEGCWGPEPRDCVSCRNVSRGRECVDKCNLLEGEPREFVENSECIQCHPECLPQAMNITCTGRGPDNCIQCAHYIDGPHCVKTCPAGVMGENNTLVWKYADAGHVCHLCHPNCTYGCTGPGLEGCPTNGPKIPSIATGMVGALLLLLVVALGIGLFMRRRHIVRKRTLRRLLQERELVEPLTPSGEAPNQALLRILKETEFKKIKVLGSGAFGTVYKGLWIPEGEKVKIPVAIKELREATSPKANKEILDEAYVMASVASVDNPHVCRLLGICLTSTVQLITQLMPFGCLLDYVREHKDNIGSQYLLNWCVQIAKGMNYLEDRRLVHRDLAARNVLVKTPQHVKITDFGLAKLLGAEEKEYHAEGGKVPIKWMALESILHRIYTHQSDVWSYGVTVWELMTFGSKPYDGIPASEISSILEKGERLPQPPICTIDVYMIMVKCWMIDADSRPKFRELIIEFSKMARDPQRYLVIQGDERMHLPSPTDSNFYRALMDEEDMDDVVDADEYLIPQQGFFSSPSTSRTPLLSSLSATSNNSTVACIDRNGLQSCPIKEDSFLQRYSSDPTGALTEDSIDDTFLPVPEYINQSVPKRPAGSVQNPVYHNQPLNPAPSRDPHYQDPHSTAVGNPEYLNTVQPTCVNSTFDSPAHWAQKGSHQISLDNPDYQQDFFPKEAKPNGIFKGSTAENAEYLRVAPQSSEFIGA
T3 sequence (P04626 with tags, fused parts or gaps INS775YVMA): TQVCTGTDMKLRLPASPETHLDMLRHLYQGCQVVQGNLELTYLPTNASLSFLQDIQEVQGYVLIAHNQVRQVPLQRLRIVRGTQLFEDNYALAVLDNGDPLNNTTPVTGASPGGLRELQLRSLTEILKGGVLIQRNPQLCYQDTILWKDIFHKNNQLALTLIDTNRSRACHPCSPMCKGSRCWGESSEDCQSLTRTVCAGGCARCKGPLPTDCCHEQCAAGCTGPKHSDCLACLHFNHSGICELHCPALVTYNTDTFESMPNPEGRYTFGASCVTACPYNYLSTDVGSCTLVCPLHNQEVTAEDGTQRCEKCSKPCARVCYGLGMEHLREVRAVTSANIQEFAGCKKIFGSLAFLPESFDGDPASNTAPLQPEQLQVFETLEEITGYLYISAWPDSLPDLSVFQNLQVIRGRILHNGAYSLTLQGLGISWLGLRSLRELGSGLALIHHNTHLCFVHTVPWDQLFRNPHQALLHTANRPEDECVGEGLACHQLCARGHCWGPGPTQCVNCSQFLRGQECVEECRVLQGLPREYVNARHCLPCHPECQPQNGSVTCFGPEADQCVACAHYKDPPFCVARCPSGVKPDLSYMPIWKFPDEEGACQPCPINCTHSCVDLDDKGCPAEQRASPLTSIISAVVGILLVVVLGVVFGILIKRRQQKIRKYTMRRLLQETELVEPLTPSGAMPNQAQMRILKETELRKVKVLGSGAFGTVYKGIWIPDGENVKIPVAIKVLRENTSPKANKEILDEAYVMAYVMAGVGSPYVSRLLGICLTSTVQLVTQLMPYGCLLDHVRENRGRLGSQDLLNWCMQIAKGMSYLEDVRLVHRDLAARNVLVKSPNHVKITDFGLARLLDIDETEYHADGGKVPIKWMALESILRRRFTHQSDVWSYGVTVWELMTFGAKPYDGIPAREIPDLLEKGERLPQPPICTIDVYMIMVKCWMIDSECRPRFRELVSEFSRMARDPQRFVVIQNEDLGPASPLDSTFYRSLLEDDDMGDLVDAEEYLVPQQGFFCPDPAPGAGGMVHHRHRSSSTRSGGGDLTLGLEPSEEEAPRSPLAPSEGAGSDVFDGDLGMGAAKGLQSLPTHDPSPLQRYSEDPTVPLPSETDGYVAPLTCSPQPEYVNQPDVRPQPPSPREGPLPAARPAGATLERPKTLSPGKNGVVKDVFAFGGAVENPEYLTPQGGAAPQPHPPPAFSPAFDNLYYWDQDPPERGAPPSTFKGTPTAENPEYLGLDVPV
EGFR exon 20 NPG insertion (H773_V774insNPG), sequence (P00533 with tags, fused parts or gaps INS772GNP, form open): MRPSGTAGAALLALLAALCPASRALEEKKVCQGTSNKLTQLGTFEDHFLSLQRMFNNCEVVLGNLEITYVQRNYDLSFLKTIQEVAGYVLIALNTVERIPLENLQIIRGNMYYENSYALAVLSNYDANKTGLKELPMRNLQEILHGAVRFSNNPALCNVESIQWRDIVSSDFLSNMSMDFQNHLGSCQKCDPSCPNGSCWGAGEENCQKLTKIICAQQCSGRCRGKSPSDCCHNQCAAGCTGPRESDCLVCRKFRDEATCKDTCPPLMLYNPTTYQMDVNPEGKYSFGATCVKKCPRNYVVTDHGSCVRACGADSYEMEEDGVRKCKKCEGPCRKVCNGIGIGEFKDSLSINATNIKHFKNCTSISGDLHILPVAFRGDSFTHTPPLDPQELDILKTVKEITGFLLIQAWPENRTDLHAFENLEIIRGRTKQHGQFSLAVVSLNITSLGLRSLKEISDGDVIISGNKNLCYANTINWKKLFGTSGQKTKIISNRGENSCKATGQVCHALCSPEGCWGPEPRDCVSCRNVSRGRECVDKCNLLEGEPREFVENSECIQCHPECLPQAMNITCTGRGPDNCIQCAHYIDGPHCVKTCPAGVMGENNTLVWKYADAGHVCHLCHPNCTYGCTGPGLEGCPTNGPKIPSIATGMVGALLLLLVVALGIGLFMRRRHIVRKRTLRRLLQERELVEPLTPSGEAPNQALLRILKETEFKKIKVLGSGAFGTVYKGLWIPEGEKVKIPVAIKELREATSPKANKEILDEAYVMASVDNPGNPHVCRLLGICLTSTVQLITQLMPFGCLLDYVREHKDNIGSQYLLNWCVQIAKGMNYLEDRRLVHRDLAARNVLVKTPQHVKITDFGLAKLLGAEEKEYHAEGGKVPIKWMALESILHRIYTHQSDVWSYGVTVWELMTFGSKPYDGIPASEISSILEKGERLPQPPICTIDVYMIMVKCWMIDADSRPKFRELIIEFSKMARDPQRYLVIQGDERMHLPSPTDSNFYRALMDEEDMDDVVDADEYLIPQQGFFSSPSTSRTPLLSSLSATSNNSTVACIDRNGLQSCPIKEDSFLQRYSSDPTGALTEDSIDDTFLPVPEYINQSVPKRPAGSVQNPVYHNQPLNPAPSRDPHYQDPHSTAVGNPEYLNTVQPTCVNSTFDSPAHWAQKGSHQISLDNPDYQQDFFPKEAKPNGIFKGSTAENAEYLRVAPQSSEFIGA

Row | Structure (SMILES) | EGFR exon 19 deletion and T790M mutation IC50 [1] | IC50 [2] | IC50 [3] | IC50 [4]
1 | C=CC(=O)Nc1cc(Nc2ncc(C#N)c(-c3c4n(c5ccccc35)CCOC4)n2)c(OC)cc1N(C)CCN(C)C [Example 8, N-(5-((5-cyano-4-(3,4-dihydro-1H-[1,4]oxazino[4,3-a]indol-10-yl)pyrimidin-2-yl)amino)-2-((2-(dimethylamino)ethyl)(methyl)amino)-4-methoxyphenyl)acrylamide] | A (Group A compounds have an IC50 value for the indicated mutant below about 100 nM) | 100 to 500 nM | < 100 nM | 100 to 500 nM
2 | C=CC(=O)Nc1cc(Nc2ncc(Cl)c(-c3c4n(c5ccccc35)CCOC4)n2)c(OC)cc1N(C)CCN(C)C [Example 9, N-(5-((5-chloro-4-(3,4-dihydro-1H-[1,4]oxazino[4,3-a]indol-10-yl)pyrimidin-2-yl)amino)-2-((2-(dimethylamino)ethyl)(methyl)amino)-4-methoxyphenyl)acrylamide] | A (Group A compounds have an IC50 value for the indicated mutant below about 100 nM) | > 1000 nM | 500 to 1000 nM | > 1000 nM
